Measured values taken from paper PMC5835976, “Synthesis, gallium labelling and characterization of P04087, a functionalized phosphatidylserine-binding peptide” (EJNMMI Radiopharmacy and Chemistry, 2017).
Where no end group is shown, it is not given here.

Legend:
[1] = compared with Ga-P04087; no reference given for the value; cited from earlier work
vegetations = vegetations of experimental endocarditis; ref Rouzet et al. [2008]; cited from earlier work
From the text: Otherwise, the presence of ^67Ga-P04087 uptake on autoradiography in contrast to the rapid degradation observed in vitro without the metalloprotease inhibitor, point out the discrepancies that could occur between in vitro and in vivo degradation even when low tracer amounts are used in vitro in order to avoid saturation of enzymes (García-Garayoa et al. [2001]). These positive autoradiography results extend the findings of histology experimentations on the binding of the agent to PS. However, comparatively to radiolabelled Annexin A5, the contrast was not sufficient to provide a detectable sig ...

[2] = system: phosphatidylserine in valve vegetations; experiment: In vivo binding to PS in rat model of infective endocarditis (SPECT/CT, autoradiography); conditions: intravenous injection, intense signal in the bladder
[3] = assay type: in vitro ADME, human
Experimental: The metabolic stability was checked in human serum at 37 °C in presence and in absence of 1,10 phenanthroline monohydrate, a well-known metalloprotease inhibitor (Wijayanti et al. [2006]) at appropriate periods of time (0, 15, 30, 60 min). In two different tubes containing 200 μL of human serum plasma previously incubated at 37 °C was added 40 μL of ^67Ga-P04087 labelling solution. 4 μL of 1 mg/mL of 1,10 phenanthroline monohydrate in ethanol was added only in one of the two tubes. At 0, 15, 30 and 60 min, 20 μL aliquots were collected and proteins were precipitated with 200 μL of methanol. Samples were then filtered with 0.2 μm Whatman filter (13 mm) and the methanol was then evaporated with a stream of nitrogen. The resulting dry residue was dissolved in 200 μL water and then analyzed by C18-radio-HPLC using the equipment mentioned above.

[4] = Peptide stability in Hank's medium with 10% foetal calf serum; assay type: in vitro ADME; conditions: 37 °C; for Stability result: Hanks + 10% FCS, 2 h incubation, in darkness, triplicate, sampled at 0, 1 h, 2 h, TCA precipitation, LC/ES/MS; for Stability in Hanks media supplied or not with foetal calf serum: Hanks media with or without FCS, two hours
Experimental: A 100 μL solutions of R824 (PGDLSR), R825 (DAHSFS) and R826 (LIKKPF) in Hank’s medium and 10% FCS (foetal calf serum) were prepared and incubated (in triplicate) for 2 h at 37 °C and in complete darkness. At 0, 1 h and 2 h, 100 μL were sampled from each tube; 200 μL of 0.6 M trichloroacetic acid were added. The mixtures were then centrifuged at 20,000 g for 10 min at 4 °C. One microliter of each supernatant was then analyzed by LC/ES/MS.

Compound	Stability result [4]	Stability in Hanks media supplied or not with foetal calf serum [4]	also measured
99mTc-AnnexinV: technetium 99m-labelled Annexin V, protein imaging agent targeting PS	–	–	affinity to PS [1]: 6*10^−9 M; uptake ratio for autoradiography (vegetations): 2; uptake ratio for in vivo acquisitions (vegetations): 1.3
CC(C)C[C@H](NC(=O)[C@H](CC(=O)O)NC(=O)CNC(=O)[C@@H]1CCCN1C(=O)CCNC(=O)CCC(C(=O)O)N1CCN(CC(=O)O)CCN(CC(=O)O)CC1)C(=O)N[C@@H](CO)C(=O)N[C@@H](CCCNC(=N)N)C(=O)O (some centres unmarked) [Peptide 67Ga-P04087, metal not drawn]	–	–	Renal elimination on SPECT/CT [2]: rapid renal elimination; Radiochemical purity in human serum with 1,10 phenanthroline monohydrate [3]: 100%
LIKKPF [Peptide R826]	Total degradation 1 h after the start of incubation	quickly degraded	–

Continued, in another order:

Stability result [4]	Stability in Hanks media supplied or not with foetal calf serum [4]	Compound	also measured
Stable	stable	DAHSFS [Peptide R825]	–
Stable	stable	PGDLSR [Peptide R824]	–
